Source: US11034932B2, “Composition capable of promoting the growth of denitrifying microorganisms and uses thereof” (CHINA PETROLEUM & CHEMICAL CORPORATION, priority 2016, dated 2021)

System: denitrifying microorganisms
Assay: AO wastewater treatment with promoter 1# plus additive (Example 2)
Settings: additive (0.05-0.10 mg/L) added along with promoter 1#; process as example 1
Protocol: Hereunder the present invention will be detailed in examples. In the following examples, the COD concentration is measured with the method specified in GB11914-89 “Water Quality—Determination of Chemical Oxygen Demand—Dichromate Method”; the ammonia nitrogen concentration is measured with the method specified in GB7478-87 “Water Quality—Determination of Ammonium—Distillation and Titration Method”; the concentration of nitrite nitrogen is measured with the method specified in GB7493-87 “Water Quality—Determination of Nitrite Nitrogen—Spectrophotometric Method”; the total nitrogen concentration is measured with the method specified in GB11894-89 “Water Quality—Determination of Total Nitrogen—UV Spectrophotometric Method—Alkaline Potassium Persulfate Digestion Method”.
The wastewater is treated according to the treatment process and operating condition described in example 1, but: an additive is added in a certain amount along with the promoter 1#.
Wherein the formic acid hydroxylamine is obtained by mixing a formic acid and a hydroxylamine at 1:1 molar ratio; the acetic acid hydroxylamine is obtained by mixing an acetic acid and a hydroxylamine at 1:1 molar ratio; both of them are […] after they are prepared.

Row | SMILES | COD in outputted water | NH3—N in outputted water | NO2^—N in outputted water | TN in outputted water
1 | O=S([O-])[O-].[Na+].[Na+] [Na2SO3] | 44.3 mg/L | 10.0 mg/L | 0.2 mg/L | 18.2 mg/L
2 | NCCCCNCCCN [Spermidine] | 48.4 mg/L | 8.9 mg/L | 0.2 mg/L | 23.9 mg/L
3 | NCCCNCCCCNCCCN [Spermine] | 47.9 mg/L | 9.3 mg/L | 0.1 mg/L | 21.3 mg/L
